The values below come from patent US20160128980A1, “METHODS OF TREATING CKD USING PREDICTORS OF FLUID RETENTION” (AbbVie Inc., priority 2014, published 2016).

The conditions of series [1]: 1-10 mg/day; cited from earlier work.
For series [2], the system named is subjects with type 2 diabetes and albuminuria on stable doses of RAS inhibitors. Put plainly: Study M10-815, Phase 2a placebo controlled study of atrasentan. The format is in vivo, human. The conditions noted are these: for reduction in the mean UACR from baseline: placebo 11%; for subjects with mild to moderate peripheral edema: placebo 9%. The procedure: In a Phase 2a double-blind, randomized, placebo controlled study (referred to herein as M10-815), subjects with type 2 diabetes and albuminuria who were on stable doses of RAS inhibitors were administered atrasentan HCl at 0.25, 0.75 or 1.75 mg QD for 8 weeks.

Series [3] concerns subjects with type 1 diabetes and proteinuria not receiving RAS inhibitors. The experiment in a line: Study M96-499, Phase 2 cross-over study of atrasentan. The format is in vivo, human. The source says:
The most commonly experienced treatment-emergent adverse events in the atrasentan group were peripheral edema (64%), pulmonary edema (18%), rhinitis (36%) and headache (18%), whereas in the placebo group there was no peripheral edema, but there were reports of rhinitis (11%) and headache (56%).

Series [4] relates to patients with type 2 diabetic nephropathy. The experiment in a line: Two Phase 2b 12 week placebo-controlled studies of atrasentan in residual albuminuria. In kind it is in vivo, human. The settings on record: for Linear regression coefficient, hemoglobin response: hemoglobin change after two weeks; for Linear regression coefficient, weight response: weight change after two weeks. The procedure:
Two Phase 2b, multicenter, prospective, randomized, double-blinded, placebo-controlled, 12 week studies were conducted to evaluate the efficacy and safety of atrasentan compared to placebo in reducing residual albuminuria. Atrasentan was studied at doses of 0.75 mg QD and 1.25 mg QD. The study methodologies were the identical, but for the location. (NCT01356849 in U.S., Canada, and Taiwan; NCT10424319 in Japan). Additional clinical details can be found in Kohan, D E, et al., “Predictors of Atrasentan-Associated Fluid Retention and Change in Albuminuria in Patients with Diabetic Nephropathy,” Clin J Am Soc Nephrol, September 2015, 10:1568-1574, which is hereby incorporated by reference in its entirety. Observations in body weight changes and hemoglobin changes may be used as surrogate markers for changes in fluid retention. Demographic parameters were similar between the placebo and atrasentan 0.75 and 1.25 mg/d arms (Table 1). The following abbreviations are used within the table: BNP=B-type natriuretic peptide; DBP=diastolic blood pressure; eGFR=estimated glomerular filtration rate; HbA1c=glycated hemoglobin; RAS=renin-angiotensin system; SBP=systolic blood pressure; UACR=urinary albumin to creatinine ratio. Table 1 is reproduced in part from de Zeeuw D, et al., The endothelin antagonist atrasentan lowers residual albuminuria in patients with type 2 diabetic nephropathy. J Am Soc Nephrol 25: 1083-1093, 2014, which is hereby incorporated by reference in its entirety. Values within Table 1 are mean±standard deviation unless stated otherwise. The abbreviations used in Table 3 include BP=blood pressure; eGFR=estimated glomerular filtration rate; HbA1c=glycated hemoglobin; HOMA=homeostatic model assessment. The following covariates were included in the initial backward selection model: treatment assignment, age, gender, body weight, Hb, eGFR, albuminuria, systolic blood pressure (BP), eGFR, log transformed homeostatic metabolic assessment (HOMA) product, log-transformed B-type natriuretic peptide (BNP), thiazide and loop-diuretic use. Systolic blood pressure and atrasentan dose were not included in the final logistic regression models for body weight and hemoglobin, respectively.

Series [5] deals with congestive heart failure (CHF). The conditions noted are these: within the first 4-8 weeks; thought to be a consequence of fluid retention; cited from earlier work.
The conditions of series [6]: cited from earlier work.
Series [7] concerns participants with type 2 diabetes and overt diabetic nephropathy. The settings on record: cited from earlier work; for median decrease of UACR: median follow-up 4 months, placebo 9.7%; for discontinuation of trial medications due to adverse events: placebo 1.5%; for deaths: placebo 12.
The subject of series [8] is individuals with a systolic blood pressure above 140 mmHg receiving at least three blood-pressure-lowering drugs. The conditions noted are these: cited from earlier work.
The test system of series [9] is CHF. The conditions noted are these: at higher doses; cited from earlier work.
In series [10] the test system is patients with acute CHF. The settings on record: intravenous, doses greater than 1 mg/hr; cited from earlier work.
Where [11] appears, read: 0.75 mg/day vs. placebo, after two weeks.
The mark [12] stands for this setting: 0.75 mg/day, Recovery (30 days).
Where [13] appears, read: 1.25 mg/day vs. placebo, after two weeks.
[14] abbreviates: 1.25 mg/day, Recovery (30 days).
Where [15] appears, read: after 14 weeks, 50, 100 or 300 mg once daily, non-dose-dependent.

SMILES strings stand for the structures. Like-named read-outs stand apart in the source and are kept apart here.

In the case of `COC(c1ccccc1)(c1ccccc1)[C@H](Oc1nc(C)cc(C)n1)C(=O)O` [Ambrisentan], the edema incidence in [1] is 25%.

For `CCCCN(CCCC)C(=O)CN1C[C@H](c2ccc3c(c2)OCO3)[C@@H](C(=O)O)[C@@H]1c1ccc(OC)cc1` [Atrasentan, (2R,3R,4S)-4-(1,3-benzodioxol-5-yl)-1-[2-(dibutylamino)-2-oxoethyl]-2-(4-methoxyphenyl)pyrrolidine-3-carboxylic acid], the “reduction in the mean UACR from baseline” value in series [2] (0.25 mg QD for 8 weeks, non-significant, P=0.291) amounted to 21%; in [2] (0.75 mg QD for 8 weeks, 1-sided P=0.023), 42%; in series [2] (1.75 mg QD for 8 weeks, 1-sided P=0.073) it was 35%. The “subjects with mild to moderate peripheral edema” value is given as 14% in series [2] (0.25 mg QD), 18% in [2] (0.75 mg QD) and 46% in series [2] (1.75 mg QD). The “mean arterial blood pressure (BP)” value in [3] (5 mg QD) is given as “reduced”. In [3] (5 mg QD), the “pulmonary edema, treatment-emergent adverse event” value is 18%. The “peripheral edema, treatment-emergent adverse event” value in series [3] (5 mg QD, none in placebo) amounted to 64%. In addition, the “rhinitis, treatment-emergent adverse event” value in series [3] (5 mg QD, placebo 11%) amounted to 36%. The “headache, treatment-emergent adverse event” value in series [3] (5 mg QD, placebo 56%) is recorded as 18%. In addition, the “reduction in urinary albumin excretion” value in [3] (5 mg daily (QD)) amounted to 65%. Besides, the “Logistic regression association with ≧1.3 g/dl fall in Hb” value in series [4] (setting [11]) is reported as “no significant association”. For the same compound, the results for the “Logistic regression odds ratio (95% CI), ≧2 kg weight gain” value in series [4] (setting [11]) and in [4] (setting [13]) were 3.0 (1.0-8.5) and 6.6 (2.3-18.6), respectively. Moreover, the “Linear regression coefficient, hemoglobin response” value in series [4] (0.75 mg/day vs. placebo) is recorded as −0.7; in series [4] (1.25 mg/day vs. placebo), −1.0. For the same compound, the results for the “Linear regression coefficient, weight response” value in series [4] (0.75 mg/day vs. placebo) and in series [4] (1.25 mg/day vs. placebo) were 0.8 and 1.3, respectively. Also, the “BNP, median” value in series [4] (0.75 mg/day, Baseline) turned out to be 33.0 pg/mL; in series [4] (0.75 mg/day, Week 12) it was 33.1 pg/mL; in series [4] (1.25 mg/day, Baseline) it was 33.5 pg/mL; in series [4] (1.25 mg/day, Week 12), 37.0 pg/mL. Moreover, the “Hemoglobin, Mean (SD)” value in series [4] (0.75 mg/day, Baseline) is given as 12.9 (1.5) g/dL; in series [4] (setting [12]), 12.4 (1.5) g/dL; in [4] (0.75 mg/day, Week 2) it was 12.0 (1.5) g/dL; in series [4] (0.75 mg/day, Week 12), 11.8 (1.6) g/dL; in series [4] (1.25 mg/day, Baseline) it was 12.9 (1.8) g/dL; in series [4] (setting [14]), 12.5 (1.9) g/dL. Moreover, the “Hemoglobin, Mean (SD)” value was 11.8 (1.8) g/dL in [4] (1.25 mg/day, Week 2) and 11.8 (1.8) g/dL in [4] (1.25 mg/day, Week 12). Further, the “UACR, median” value in [4] (0.75 mg/day, Baseline) came out at 878 mg/g; in series [4] (setting [12]) it was 1051 mg/g; in [4] (0.75 mg/day, Week 2), 573 mg/g; in series [4] (0.75 mg/day, Week 6), 636 mg/g; in [4] (0.75 mg/day, Week 12), 521 mg/g; in series [4] (1.25 mg/day, Baseline) it was 826 mg/g. For the same compound, the “UACR, median” value was found to be 727 mg/g in series [4] (setting [14]); 515 mg/g in [4] (1.25 mg/day, Week 2); 461 mg/g in [4] (1.25 mg/day, Week 6); 470 mg/g in series [4] (1.25 mg/day, Week 12). The “Weight, Mean (SD)” value in [4] (0.75 mg/day, Baseline) is reported as 87.1 (22.1) kg; in series [4] (setting [12]), 85 (23) kg; in [4] (0.75 mg/day, Week 2), 88.0 (22.2) kg; in series [4] (0.75 mg/day, Week 6) it was 87.3 (21.8) kg; in series [4] (0.75 mg/day, Week 12), 87.3 (22.3) kg; in [4] (1.25 mg/day, Baseline) it was 88.3 (18.4) kg. Besides, the “Weight, Mean (SD)” value is listed as 88 (19) kg in series [4] (setting [14]); 89.4 (18.7) kg in series [4] (1.25 mg/day, Week 2); 89.6 (19.0) kg in series [4] (1.25 mg/day, Week 6); 89.0 (19.2) kg in series [4] (1.25 mg/day, Week 12). Besides, the “Logistic regression odds ratio (95% CI), ≧1.3 g/dL hemoglobin fall” value in series [4] (setting [13]) was 5.6 (2.5-12.7). In series [4] (after 2 weeks of treatment, placebo decreased approximately 1 kg), the body weight increase result is “approximately 1 kg”. Further, in [4] (both atrasentan groups after 2 weeks, persisted throughout treatment), the “hemoglobin (Hb) decrease” value is listed as “approximately 1 g/dl”. Besides, the “Hb after treatment discontinuation” value in series [4] (by 30 days after treatment discontinuation) is “normalized”. In series [4] (patients who received atrasentan), the “change in B-natriuretic peptide (BNP)” value is reported as “no significant change”.

Turning to `COc1ccccc1Oc1c(NS(=O)(=O)c2ccc(C(C)(C)C)cc2)nc(-c2ncccn2)nc1OCCO` [Bosentan], the “worsening of congestive heart failure” value in [5] is “associated with early worsening of congestive heart failure (CHF)”.

With `Cc1cc2c(cc1CC(=O)c1sccc1S(=O)(=O)Nc1onc(C)c1Cl)OCO2` [Sitaxsentan], the edema result in series [6] (higher doses) is given as “significantly causes edema”; in series [6] (lower doses (100 or 300 mg daily)), “less tendency to cause edema”.

For the compound `COc1ccccc1Oc1c(NS(=O)(=O)c2ccc(C)cn2)nc(-c2ccncc2)nc1OC` [avosentan], in [7] (25 mg), the “median decrease of UACR” value is reported as 44%, the “discontinuation of trial medications due to adverse events” value is recorded as 19.69% and the deaths is reported as 21. Moreover, in series [7] (50 mg), the “median decrease of UACR” value is given as 49%, the “discontinuation of trial medications due to adverse events” value is reported as 18.2% and the deaths was 17.

For `COc1cc(OC)nc(O[C@H](C(=O)O)C(OC)(c2ccccc2)c2ccccc2)n1` [darusentan], in series [8] (setting [15]), the “reduction in diastolic clinic seated blood pressure compared with placebo” value was around 5 mmHg and the “reduction in systolic clinic seated blood pressure compared with placebo” value is “about 10 mmHg”. In addition, the “patients discontinuing because of fluid retention or peripheral edema” value in series [8] (combined darusentan treatment groups) was 2%. For the same compound, in series [8] (darusentan groups combined, placebo 14%), the “patients with edema and/or fluid retention reported” value is 27%. Further, the “patients with cardiac-related serious adverse events” value in series [8] (patients taking darusentan) is on record as “five”. Also, in series [9], the “worsening of CHF” value is given as “tended to worsen CHF”.

For the compound `COc1ccccc1Oc1c(NS(=O)(=O)c2ccc(C(C)C)cn2)nc(-c2ccnc(-c3nnn[nH]3)c2)nc1OCCO` [tezosentan], the urine output entry in series [10] is given as “reduced urine output”.
